Source: US20230286973A1, “PROTEIN SECRETION INHIBITORS” (KEZAR LIFE SCIENCES, priority 2020, published 2023)
Read-outs that look alike come from different tables or passages of the source.

Tests used:
[1] = test system: PD1-ss+10aa/Gaussia Luciferase; experiment: Dox-Induced PD1-ss-Gluc Assay; type: cell-based; settings: 24 hr Dox induction, 293FRT/TO cells, read-out: 24 hr Dox Inducible PD1ssGluc 293FRT/TO: Mean IC50
Method in brief: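 Flp-In 293 T-REx cells stably carrying a doxycycline-inducible Gaussia luciferase fused to the PD1 signal sequence plus 10 aa were plated the day before. Compound dilutions in DMSO/media containing doxycycline were then added and incubated at 37 °C, 5% CO2. Data for undefined stereochemistry refer to stereoisomer mixtures.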

[2] = test system: TNFα-FL/Gaussia Luciferase; experiment: Dox Induced TNFα-FL-Gluc Assay; type: cell-based; settings: for IC50: 24 hr Dox induction, 293FRT/TO cells, read-out: 24 hr Dox Inducible TNFaFLGluc 293FRT/TO: Mean IC50; for 24 hr Dox Inducible TNFaFLGluc 293FRT/TO: TNF/PD1: ratio of TNFaFLGluc IC50 to PD1ssGluc IC50
Method in brief: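 Flp-In 293 T-REx cells stably expressing full-length TNFα (aa 1-233) fused at its C-terminus to Gaussia luciferase under tetracycline-regulated control were plated the day before assay. Compound dilutions in DMSO/media containing doxycycline were added and incubated at 37 °C, 5% CO2. Unspecified stereochemistry denotes stereoisomer mixtures.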

[3] = test system: HER3-ss+4aa/Gaussia Luciferase; experiment: Dox-Induced Her3-ss-Gluc Assay; type: cell-based; settings: 24 hr Dox induction, 293FRT/TO cells, read-out: 24 hr Dox Inducible Her3(ss + 4)Gluc 293FRT/TO: Mean IC50
Method in brief: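 Stable Flp-In 293 T-REx line expressing Gaussia luciferase fused to the HER3 signal sequence plus 4 amino acids under tetracycline-regulated (T-REx) control. Cells plated the day before, then treated with compound dilutions in DMSO/media containing doxycycline and incubated at 37° C., 5% CO2.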

[4] = test system: IL-2-FL/Gaussia Luciferase; experiment: Dox Induced IL2-FL-Gluc Assay; type: cell-based; settings: for IC50: 24 hr Dox induction, 293FRT/TO cells, read-out: 24 hr Dox Inducible IL2FLGluc 293FRT/TO: Mean IC50; for 24 hr Dox Inducible IL2FLGluc 293FRT/TO: IL2/PD1: ratio of IL2FLGluc IC50 to PD1ssGluc IC50
Method in brief: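 Flp-In 293 T-REx cells stably carrying doxycycline-inducible full-length IL-2 (aa 1-153) fused at its C-terminus to Gaussia luciferase, selected with hygromycin and blasticidin. Cells were plated the day before, then treated with compounds in DMSO/media containing doxycycline at 37° C, 5% CO2.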

[5] = test system: multiple myeloma cell line NCI-H929; experiment: H929 Cell Viability Assay; type: cell-based, human; settings: Homo sapiens, NCI-H929, 48 h, NCI-H929 cells, Celltiter-Glo
Method in brief: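 NCI-H929 cells, resuspended in RPMI 1640 with 10% FBS and 2 mM glutamine, were treated with compound dilutions in DMSO/media and incubated 48 hours at 37° C, 5% CO2. Viability was read by CellTiter-Glo luminescence. Compounds drawn without stereochemistry were tested as stereoisomer mixtures.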

[6] = test system: multiple myeloma cell line U266B1; experiment: U266 Cell Viability Assay; type: cell-based, human; settings: Homo sapiens, U-266, 48 h, U266B1 cells, Celltiter-Glo
Method in brief: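 Cells grown in RPMI 1640 with 10% FBS, 2 mM glutamine and penicillin/streptomycin were exposed to compound dilutions in DMSO/media for 48 hours at 37° C., 5% CO2. Viability was read by CellTiter-Glo luminescence. Undefined stereocentres mean data for stereoisomer mixtures.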

[7] = Liver Microsome Stability Assay (rat); settings: rat liver microsomes, with NADPH, 1.0 uM compound
Method: (§1) Stability of a compound was assessed in the presence of liver microsomes from various sources—mouse, rat, monkey and human liver microsomes. 1.0 uM compound, 0.4% DMSO in 0.1 M Potassium Phosphate with 1.0 mg/mL liver microsomes, were incubated at 37° C. with or without 1 mM NADPH. The samples were quenched at 0, and 30 minutes.

[8] = Liver Microsome Stability Assay (mouse); settings: mouse liver microsomes, with NADPH, 1.0 uM compound
Method: as §1

[9] = Liver Microsome Stability Assay (human); settings: human liver microsomes, with NADPH, 1.0 uM compound
Method: as §1

[10] = Liver Microsome Stability Assay (monkey); settings: monkey liver microsomes, with NADPH, 1.0 uM compound
Method: as §1

[11] = '<=>' given where both are I.A.

| Structure (SMILES) | IC50 [1] [nM] | IC50 [2] [nM] | IC50 [3] [nM] | IC50 [4] [nM] | EC50 [5] [nM] | EC50 [6] [nM] | Liver Microsome Stability (Multiple Species): Rat - % Remaining after 30 min w/NADPH [7] [%] | Liver Microsome Stability (Multiple Species): Mouse - % Remaining after 30 min w/NADPH [8] [%] | Liver Microsome Stability (Multiple Species): Human - % Remaining after 30 min w/NADPH [9] [%] | Liver Microsome Stability (Multiple Species): Monkey - % Remaining after 30 min w/NADPH [10] [%] | IC50 ([1]; mean) [nM] | IC50 ([2]; mean) [nM] | IC50 ([3]; mean) [nM] | IC50 ([4]; mean) [nM] | 24 hr Dox Inducible TNFaFLGluc 293FRT/TO: TNF/PD1 [2] | 24 hr Dox Inducible IL2FLGluc 293FRT/TO: IL2/PD1 [4] | 24 hr Dox Inducible IL2FLGluc 293FRT/TO: IL2/PD1 [4, 11] |
| --- | --- | --- | --- | --- | --- | --- | --- | --- | --- | --- | --- | --- | --- | --- | --- | --- | --- |
| C[S+]([O-])N1CC(Oc2ccc(N3CCC[C@@H]3c3csc(NC(=O)c4cccn4Cc4ccnc(F)c4)n3)cc2)C1 (stereo partly drawn) [Compound A153, 1-((2-fluoropyridin-4-yl)methyl)-N-(4-((2R)-1-(4-((1-(methylsulfinyl)azetidin-3-yl)oxy)phenyl)pyrrolidin-2-yl)thiazol-2-yl)-1H-pyrrole-2-carboxamide] | 37.4 | 877 | 64.8 | 90.4 | 1020 | > 25000 | 19.8 | 1.09 | 1.88 | 2.49 | – | – | – | – | 23.5 | 2.4 | – |
| O=C(Nc1nc([C@H]2CCCN2c2ccccc2)cs1)c1cccn1Cc1cc(F)nc(F)c1 [Compound A60, (R)-1-((2,6-difluoropyridin-4-yl)methyl)-N-(4-(1-phenylpyrrolidin-2-yl)thiazol-2-yl)-1H-pyrrole-2-carboxamide] | 63.8 | 861 | 131 | 186 | 4720 | > 25000 | 19.7 | 48.3 | 13.7 | 23.8 | – | – | – | – | 13.5 | 2.9 | – |
| CC(=O)N[C@H](C)c1ccc(N2CCC[C@@H]2c2csc(NC(=O)c3cccn3Cc3ccncc3)n2)cc1 [Compound A66, N-(4-((R)-1-(4-((R)-1-acetamidoethyl)phenyl)pyrrolidin-2-yl)thiazol-2-yl)-1-(pyridin-4-ylmethyl)-1H-pyrrole-2-carboxamide] | 27.2 | 584 | 59.7 | 69 | 416 | > 25000 | 5.19 | 30 | 2.98 | 2.72 | – | – | – | – | 21.5 | 2.5 | – |
| O=C(Nc1nc([C@H]2CCCN2c2ccc(OC3CCN(C(=O)C(F)(F)F)CC3)cc2)cs1)c1cccn1Cc1ccnc(F)c1 [Compound A92, (R)-1-((2-fluoropyridin-4-yl)methyl)-N-(4-(1-(4-((1-(2,2,2-trifluoroacetyl)piperidin-4-yl)oxy)phenyl)pyrrolidin-2-yl)thiazol-2-yl)-1H-pyrrole-2-carboxamide] | 23.3 | 254 | 47.3 | 30.6 | 463 | > 25000 | 43.6 | 52.3 | 63.5 | 22.5 | – | – | – | – | 10.9 | 1.3 | – |

Now from value to compound, other results behind:

| IC50 [1] [nM] | IC50 [2] [nM] | IC50 [3] [nM] | IC50 [4] [nM] | EC50 [5] [nM] | EC50 [6] [nM] | Liver Microsome Stability (Multiple Species): Rat - % Remaining after 30 min w/NADPH [7] [%] | Liver Microsome Stability (Multiple Species): Mouse - % Remaining after 30 min w/NADPH [8] [%] | Liver Microsome Stability (Multiple Species): Human - % Remaining after 30 min w/NADPH [9] [%] | Liver Microsome Stability (Multiple Species): Monkey - % Remaining after 30 min w/NADPH [10] [%] | IC50 ([1]; mean) [nM] | IC50 ([2]; mean) [nM] | IC50 ([3]; mean) [nM] | IC50 ([4]; mean) [nM] | Structure (SMILES) | 24 hr Dox Inducible TNFaFLGluc 293FRT/TO: TNF/PD1 [2] | 24 hr Dox Inducible IL2FLGluc 293FRT/TO: IL2/PD1 [4] | 24 hr Dox Inducible IL2FLGluc 293FRT/TO: IL2/PD1 [4, 11] |
| --- | --- | --- | --- | --- | --- | --- | --- | --- | --- | --- | --- | --- | --- | --- | --- | --- | --- |
| 41.5 | 18800 | 5750 | 14500 | > 25000 | > 25000 | 0.41 | 30.8 | 2.81 | 1.45 | – | – | – | – | Cc1ocnc1/C=C/c1csc(NC(=O)c2cccn2Cc2ccnc(F)c2)n1 [Compound B47, (E)-1-((2-fluoropyridin-4-yl)methyl)-N-(4-(2-(5-methyloxazol-4-yl)vinyl)thiazol-2-yl)-1H-pyrrole-2-carboxamide] | 454 | 350 | – |
| – | – | – | – | > 25000 | > 25000 | 5.58 | 5 | 7.99 | 2.89 | > 25000 | > 25000 | > 25000 | > 25000 | O=C(Nc1ccccn1)c1csc(NC(=O)c2cccn2Cc2ccncc2)n1 [Compound E53] | – | – | 1 |
| 418 | 9980 | 4080 | 5360 | 5290 | 5490 | 0.43 | 3.41 | 0.44 | 0.13 | – | – | – | – | CC(C)n1ccc(/C=C/c2csc(NC(=O)c3cccn3Cc3ccnc(F)c3)n2)n1 [Compound B74, (E)-1-((2-fluoropyridin-4-yl)methyl)-N-(4-(2-(1-isopropyl-1H-pyrazol-3-yl)vinyl)thiazol-2-yl)-1H-pyrrole-2-carboxamide] | 23.9 | 13 | – |
| 30.7 | > 25000 | 1590 | 2290 | > 25000 | > 25000 | 6.91 | 6.81 | 0.2 | 0.72 | – | – | – | – | CC1CCc2c(/C=C/c3csc(NC(=O)c4cccn4Cc4ccnc(F)c4)n3)ncn2C1 (stereo not shown) [Compound B98, (E)-1-((2-fluoropyridin-4-yl)methyl)-N-(4-(2-(6-methyl-5,6,7,8-tetrahydroimidazo[1,5-a]pyridin-1-yl)vinyl)thiazol-2-yl)-1H-pyrrole-2-carboxamide] | >814 | 74 | – |
| – | – | – | – | > 25000 | > 25000 | 19.4 | 33.5 | 0.2 | 0.27 | > 5000 | > 5000 | > 5000 | > 5000 | O=C(Nc1nc(/C=C/[C@@H]2CCCCN2)cs1)c1cccn1Cc1ccncc1 [Compound E18, (S,E)-N-(4-(2-(piperidin-2-yl)vinyl)thiazol-2-yl)-1-(pyridin-4-ylmethyl)-1H-pyrrole-2-carboxamide] | – | – | 1 |
